Patent US9938261B2, “Heterocyclic compounds and methods of use thereof” (AMBIT BIOSCIENCES CORPORATION, priority 2011, dated 2018)
Read-outs that look alike come from different tables or passages of the source.

Experiments:
FLT3 = molecular target: T1, FLT3 (Homo sapiens, UniProt P36888); assay: Competition binding assay, FLT3 Kd
T1 construct: made in house
T1 sequence (P36888 27-993): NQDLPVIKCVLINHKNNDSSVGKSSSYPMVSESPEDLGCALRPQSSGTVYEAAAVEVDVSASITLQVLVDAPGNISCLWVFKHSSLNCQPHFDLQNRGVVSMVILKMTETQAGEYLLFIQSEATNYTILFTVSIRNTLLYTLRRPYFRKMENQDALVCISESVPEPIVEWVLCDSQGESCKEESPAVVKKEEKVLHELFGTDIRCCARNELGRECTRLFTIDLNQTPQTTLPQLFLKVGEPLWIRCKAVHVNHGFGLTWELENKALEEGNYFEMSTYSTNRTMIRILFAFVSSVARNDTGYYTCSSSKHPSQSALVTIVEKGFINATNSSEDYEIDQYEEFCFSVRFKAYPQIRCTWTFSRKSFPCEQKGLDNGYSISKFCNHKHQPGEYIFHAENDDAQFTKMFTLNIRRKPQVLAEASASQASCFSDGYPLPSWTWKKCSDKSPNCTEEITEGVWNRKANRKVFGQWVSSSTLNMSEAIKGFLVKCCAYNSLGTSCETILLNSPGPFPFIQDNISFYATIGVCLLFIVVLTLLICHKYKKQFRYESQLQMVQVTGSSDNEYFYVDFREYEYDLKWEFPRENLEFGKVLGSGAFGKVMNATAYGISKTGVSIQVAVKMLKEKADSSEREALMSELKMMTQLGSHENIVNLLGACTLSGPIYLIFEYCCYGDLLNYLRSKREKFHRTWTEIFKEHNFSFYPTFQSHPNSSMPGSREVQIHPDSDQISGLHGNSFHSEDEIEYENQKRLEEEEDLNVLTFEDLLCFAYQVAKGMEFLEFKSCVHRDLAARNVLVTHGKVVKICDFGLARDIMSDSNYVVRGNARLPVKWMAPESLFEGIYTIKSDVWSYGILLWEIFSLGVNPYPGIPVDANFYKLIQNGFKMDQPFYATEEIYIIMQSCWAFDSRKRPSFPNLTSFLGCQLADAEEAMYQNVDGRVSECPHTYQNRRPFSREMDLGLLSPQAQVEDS
Description: (§1) Competition binding assays used herein were developed, validated and performed as described in Fabian et al., Nature Biotechnology 2005, 23, 329-336. Kinases were produced as fusions to T7 phage (See, Fabian et al. or WO04/015142) or alternatively, the kinases were expressed in HEK-293 cells and subsequently tagged with DNA for PCR detection (See, WO08/005310). For the binding assays, streptavidin-coated magnetic beads were treated with biotinylated affinity ligands for 30 min at room temperature to generate affinity resins. The liganded beads were blocked with excess biotin and washed with blocking buffer (SeaBlock (Pierce), 1% BSA, 0.05% Tween 20, 1 mM DTT) to remove unbound ligand and to reduce non-specific binding. Binding reactions were assembled by combining kinase, liganded affinity beads, and test compounds in 1× binding buffer (20% SeaBlock, 0.17×PBS, 0.05% Tween 20, 6 mM DTT). Test compounds were prepared as 100× stocks in DMSO and diluted into the aqueous environment. Kds were determined using an eleven point threefold serial dilutions. DMSO or control compounds were was added to control assays lacking a test compound. Primary screen assays were performed in polypropylene 384-well plates in a final volume of 20-40 μL, while Kd determinations were performed in polystyrene 96-well plates in a final volume of 135 μL. The assay plates were incubated at room temperature with shaking for 1 hour to allow the binding reactions to reach equilibrium, and the affinity beads were washed extensively with wash buffer (1×PBS, 0.05% Tween 20) to remove unbound protein. The beads were then resuspended in elution buffer (1×PBS, 0.05% Tween […] non-biotinylated affinity ligand) and incubated at room temperature with shaking for 30 min. The kinase concentration in the eluates was measured by quantitative PCR.

KIT = molecular target: T2, KIT (Homo sapiens, UniProt P10721); assay: Competition binding assay, KIT Kd
T2 construct: made in house
T2 sequence (P10721 26-976): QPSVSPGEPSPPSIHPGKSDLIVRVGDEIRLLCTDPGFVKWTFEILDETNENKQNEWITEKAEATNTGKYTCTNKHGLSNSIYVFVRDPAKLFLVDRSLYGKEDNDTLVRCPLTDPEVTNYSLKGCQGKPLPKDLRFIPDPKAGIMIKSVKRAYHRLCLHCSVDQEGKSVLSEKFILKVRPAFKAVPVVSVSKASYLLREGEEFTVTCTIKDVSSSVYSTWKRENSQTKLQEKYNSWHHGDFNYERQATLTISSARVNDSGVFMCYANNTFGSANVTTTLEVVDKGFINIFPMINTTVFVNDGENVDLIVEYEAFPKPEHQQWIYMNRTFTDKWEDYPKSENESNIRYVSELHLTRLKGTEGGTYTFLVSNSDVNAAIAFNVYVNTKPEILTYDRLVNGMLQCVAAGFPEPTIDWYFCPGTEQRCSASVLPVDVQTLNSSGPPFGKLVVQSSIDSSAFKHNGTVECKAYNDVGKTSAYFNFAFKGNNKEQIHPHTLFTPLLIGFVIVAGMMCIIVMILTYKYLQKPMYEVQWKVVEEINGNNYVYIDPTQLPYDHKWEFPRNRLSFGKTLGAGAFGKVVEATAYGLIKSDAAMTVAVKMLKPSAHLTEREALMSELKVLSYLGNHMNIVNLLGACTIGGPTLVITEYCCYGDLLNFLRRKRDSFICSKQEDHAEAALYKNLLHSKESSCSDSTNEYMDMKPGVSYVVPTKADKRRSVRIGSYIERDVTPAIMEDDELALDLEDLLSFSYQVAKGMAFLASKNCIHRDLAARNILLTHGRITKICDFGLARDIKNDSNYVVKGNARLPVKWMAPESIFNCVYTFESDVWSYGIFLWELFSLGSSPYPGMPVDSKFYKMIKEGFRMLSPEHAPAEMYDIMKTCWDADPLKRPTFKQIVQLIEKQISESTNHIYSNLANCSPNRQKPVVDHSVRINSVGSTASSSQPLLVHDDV
Description: as §1

PDGFRβ = molecular target: T3, PDGFRβ (Homo sapiens, UniProt P09619); assay: Competition binding assay, PDGFRβ Kd
T3 construct: made in house
T3 sequence (P09619 33-1106): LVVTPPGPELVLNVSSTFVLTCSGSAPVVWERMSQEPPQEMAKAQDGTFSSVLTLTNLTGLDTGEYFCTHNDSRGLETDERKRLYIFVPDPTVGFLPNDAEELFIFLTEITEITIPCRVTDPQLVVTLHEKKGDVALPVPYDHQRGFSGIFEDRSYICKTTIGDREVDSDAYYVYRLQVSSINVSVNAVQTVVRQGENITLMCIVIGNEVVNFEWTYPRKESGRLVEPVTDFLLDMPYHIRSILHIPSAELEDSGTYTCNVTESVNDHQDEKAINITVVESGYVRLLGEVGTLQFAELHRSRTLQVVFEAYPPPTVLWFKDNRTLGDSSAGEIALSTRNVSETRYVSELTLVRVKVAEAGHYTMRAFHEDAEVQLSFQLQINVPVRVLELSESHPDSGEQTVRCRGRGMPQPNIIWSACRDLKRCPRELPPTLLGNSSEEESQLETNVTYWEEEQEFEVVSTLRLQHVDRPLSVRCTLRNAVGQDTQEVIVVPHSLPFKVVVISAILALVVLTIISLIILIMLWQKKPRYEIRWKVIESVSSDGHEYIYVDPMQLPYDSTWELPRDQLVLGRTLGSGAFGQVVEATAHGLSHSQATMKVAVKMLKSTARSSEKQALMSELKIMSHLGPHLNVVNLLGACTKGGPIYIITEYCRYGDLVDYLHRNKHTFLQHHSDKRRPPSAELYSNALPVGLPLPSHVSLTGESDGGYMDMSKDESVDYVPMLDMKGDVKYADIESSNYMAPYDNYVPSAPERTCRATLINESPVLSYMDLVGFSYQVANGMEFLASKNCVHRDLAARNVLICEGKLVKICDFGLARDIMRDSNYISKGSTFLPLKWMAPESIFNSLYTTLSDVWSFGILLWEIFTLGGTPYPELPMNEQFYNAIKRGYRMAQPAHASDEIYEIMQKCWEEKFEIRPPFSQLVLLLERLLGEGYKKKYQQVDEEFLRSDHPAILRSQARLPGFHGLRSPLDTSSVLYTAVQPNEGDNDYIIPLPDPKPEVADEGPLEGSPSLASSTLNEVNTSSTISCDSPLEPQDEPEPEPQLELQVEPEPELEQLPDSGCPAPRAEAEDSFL
Description: as §1

M-NFS-60 cells = assay: M-NFS-60 cell proliferation assay (Alamar Blue); assay type: cell-based, mouse; details: Mus musculus, read-out: CSF1R M-NFS-60 CTB:IC50
Description: The compounds disclosed herein were tested in an M-NFS-60 cell proliferation assay to determine their cellular potency against CSF1R. M-NFS-60s are mouse monocytic cells that depend on the binding of the ligand M-CSF to its receptor, CSF1R, to proliferate. Inhibition of CSF1R kinase activity will cause reduced growth and/or cell death. This assay assesses the potency of compounds as CSF1R inhibitors by measuring the reduction of Alamar Blue reagent by viable cells.
On day one of the experiment, M-NFS-60 cells were maintained in RPMI complete medium (Omega Scientific) plus 10% FBS supplemented with 20 ng/mL of M-CSF (R&D Systems). 96-well TC-treated, flat bottom plates were seeded at 10,000 cell/well at a volume of 100 μL per well. The cells were cultured overnight at 37° C. under 5% CO2.
On day two, compounds were added to the cells at 9 different concentrations, with half-log intervals alongside a control reference compound serving as a positive control. Final DMSO concentration was kept at 0.5% for a final volume of 200 μL. The compounds were allowed to incubate with the cells for 72 hours at 37° C. under 5% CO2.
On day five of the experiment, 40 μl of Alamar Blue reagent was added to each well and allowed to incubate for 3 hours. Alamar Blue fluorescence was read using SoftMax Pro software at 560 nm (excitation) and 590 nm (emission). IC50s were generated as an average of duplicates and represents the concentration of test compound that achieves 50% inhibition of cellular proliferation compared to control.

CSF1R [1] = molecular target: T4, CSF1R (Homo sapiens, UniProt P07333); assay: Competition binding assay, CSF1R Kd; design: made in house
T4 sequence (P07333 20-972): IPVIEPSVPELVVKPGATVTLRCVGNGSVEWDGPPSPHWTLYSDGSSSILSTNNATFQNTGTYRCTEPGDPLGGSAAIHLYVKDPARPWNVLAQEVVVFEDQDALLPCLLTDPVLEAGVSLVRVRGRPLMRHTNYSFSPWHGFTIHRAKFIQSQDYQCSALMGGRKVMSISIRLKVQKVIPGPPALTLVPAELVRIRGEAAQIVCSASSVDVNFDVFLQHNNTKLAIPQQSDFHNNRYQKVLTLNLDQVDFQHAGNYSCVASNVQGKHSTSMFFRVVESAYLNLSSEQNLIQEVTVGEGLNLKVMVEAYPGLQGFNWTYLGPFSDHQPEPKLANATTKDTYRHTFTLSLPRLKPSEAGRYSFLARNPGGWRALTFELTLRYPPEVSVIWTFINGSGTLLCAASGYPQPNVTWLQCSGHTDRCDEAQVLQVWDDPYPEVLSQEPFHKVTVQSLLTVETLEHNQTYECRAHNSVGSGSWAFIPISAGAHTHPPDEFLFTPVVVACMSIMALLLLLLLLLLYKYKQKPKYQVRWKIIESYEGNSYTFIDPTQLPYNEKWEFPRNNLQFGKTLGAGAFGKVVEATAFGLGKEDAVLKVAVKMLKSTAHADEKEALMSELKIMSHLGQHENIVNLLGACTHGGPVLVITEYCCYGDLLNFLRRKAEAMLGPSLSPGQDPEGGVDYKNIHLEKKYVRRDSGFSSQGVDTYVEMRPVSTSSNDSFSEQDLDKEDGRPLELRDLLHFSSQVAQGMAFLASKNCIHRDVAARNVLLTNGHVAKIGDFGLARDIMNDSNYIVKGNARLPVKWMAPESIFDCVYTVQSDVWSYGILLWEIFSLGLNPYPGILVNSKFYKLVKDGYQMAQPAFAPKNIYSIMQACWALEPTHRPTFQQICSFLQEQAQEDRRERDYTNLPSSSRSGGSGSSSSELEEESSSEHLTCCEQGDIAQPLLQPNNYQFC
Description: as §1

CSF1R [2] = molecular target: T4, CSF1R; assay: HEK293 CSF1R phosphorylation MSD assay; assay type: cell-based; design: expressed in transfected cells; host or cells: HEK293; details: read-out: HEK293 pCSF1R M-CSF MSD:IC50
Description: The compounds disclosed herein were tested in a CSF1R phosphorylation assay to determine their cellular potency against CSF1R. A HEK293 cell line expressing CSF1R fused to FK506 binding protein (FKBP) as a molecular tag was generated. Inhibition of CSF1R kinase activity will prevent ligand-stimulated autophosphorylation of the CSF1R-FKBP in intact cells. Subsequent cell lysates are assayed in a sandwich ELISA employing the electrochemiluminescent Meso Scale Discovery (MSD) technology for the presence of the phosphorylated (p)CSF1R-FKBP. This assay determines the potency of compounds as CSF1R inhibitors by measuring the reduction in the amount of pCSF1R with increasing doses of compounds added to the cells prior to M-CSF stimulation.
On day one of the experiment, HEK293-CSF1R-FKPB cells, maintained in DMEM, with L-glutamine (Mediatech), 10% FBS, and 100 units/mL Penicillin/Streptomycin, were seeded at 50,000 cell/well in a volume of 100 μL per well in 96-well Cell Bind plates (Costar). The cells were cultured overnight at 37° C. under 5% CO2. To prepare the plates used in the MSD assay, a 330 nM biotin-FK506 (in TBS pH 7.2) solution was added at 30 μL per well to streptavidin-coated 96-well plates (MSD), and incubated overnight at room temperature, shaking at 500 rpm on an orbital shaker.
On day two, compounds diluted in DMSO were added to the cells in duplicate plates at 9 different concentrations with half-log intervals, plus DMSO only control, alongside a reference compound serving as a positive control. Final DMSO concentration was 0.5% in a volume of 200 μL per well. The compounds were allowed to incubate with the cells for 2 h at 37° C. under 5% CO2. At the end of the incubation, human M-CSF (R&D Systems) was added for 5 min to a final concentration of 50 ng/mL to stimulate CSF1R phosphorylation. Cells were lysed for 20 min, and the lysates were applied to the washed, FK506-coated MSD plates, and incubated overnight at 4° C. shaking at 500 rpm.
On day three, the MSD plates were washed, and the captured CSF1R-FKBP was assayed sequentially for phosphorylation using mouse anti-phosphotyrosine antibody (Millipore) and Sulfo-TAG goat anti-mouse IgG antibody (MSD), and detected on a Sector Imager 6000 instrument (MSD).
A single IC50 value for each compound was determined by averaging the IC50s of the duplicates calculated using Igor Pro 6 software, and represents the compound concentration that achieves a 50% inhibition of ligand-induced CSF1R phosphorylation compared to DMSO control.

[3] = 72 hours incubation, M-CSF 20 ng/mL
[4] = 2 h compound, human M-CSF 50 ng/mL for 5 min

SMILES	Kd (FLT3) [µM]	Kd (KIT) [µM]	Kd (PDGFRβ) [µM]	Kd (CSF1R [1]) [µM]	IC50 (CSF1R [2]; [4]) [µM]	Kd (FLT3; competition binding) [µM]	Kd (KIT; competition binding) [µM]	Kd (PDGFRβ; competition binding) [µM]	Kd (CSF1R [1]; competition binding) [µM]	IC50 (CSF1R [2]; HEK293 cells, M-CSF stimulated CSF1R phosphorylation, MSD) [µM]	IC50 (M-NFS-60 cells; [3]) [µM]	IC50 (M-NFS-60 cells; M-NFS-60 cell proliferation) [µM]
COc1cc2ncn(Cc3ccc4nc(NC5CCOCC5)sc4c3)c2cc1OC [Example 15, 6-((5,6-dimethoxy-1H-benzo[d]imidazol-1-yl)methyl)-N-(tetrahydro-2H-pyran-4-yl)benzo[d]thiazol-2-amine]	> 5	0.5 to 2	> 2	0.02 to 0.05	0.2 to 0.5	–	–	–	–	–	> 1.5	–
OCCOc1ccn2c(Cc3ccc4nc(N[C@@H]5CCCC[C@H]5O)sc4c3)cnc2c1 [Example 135, (1R,2R)-2-((6-((7-(2-hydroxyethoxy)imidazo[1,2-a]pyridin-3-yl)methyl)benzo[d]thiazol-2-yl)amino)cyclohexanol]	–	–	–	–	–	> 5	0.5 to 2	0.5 to 2	0.005 to 0.02	0.05 to 0.2	–	0.05 to 0.4
COc1cc2ncn(Cc3ccc4nc(N[C@@H]5c6ccccc6C[C@@H]5O)sc4c3)c2cc1OC [Example 10, (1R,2S)-1-((6-((5,6-dimethoxy-1H-benzo[d]imidazol-1-yl)methyl)benzo[d]thiazol-2-yl)amino)-2,3-dihydro-1H-inden-2-ol]	1 to 5	0.5 to 2	0.05 to 0.5	0.005 to 0.02	0.2 to 0.5	–	–	–	–	–	0.4 to 1.5	–
COc1ccc2c(c1)ncn2Cc1ccc2nc(N[C@@H]3CCCC[C@H]3O)sc2c1 [Example 68, (1R,2R)-2-((6-((5-methoxy-1H-benzo[d]imidazol-1-yl)methyl)benzo[d]thiazol-2-yl)amino)cyclohexanol]	1 to 5	0.1 to 0.5	0.05 to 0.5	0.005 to 0.02	≤ 0.05	–	–	–	–	–	≤ 0.05	–
COc1ccc2ncn(Cc3ccc4nc(N[C@@H]5CCCC[C@H]5O)sc4c3)c2c1 [Example 67, (1R,2R)-2-((6-((6-methoxy-1H-benzo[d]imidazol-1-yl)methyl)benzo[d]thiazol-2-yl)amino)cyclohexanol]	1 to 5	≤ 0.1	0.05 to 0.5	0.005 to 0.02	0.05 to 0.2	–	–	–	–	–	0.05 to 0.4	–

Further lines, with some results ahead:

Kd (FLT3) [µM]	Kd (KIT) [µM]	Kd (PDGFRβ) [µM]	Kd (CSF1R [1]) [µM]	IC50 (CSF1R [2]; [4]) [µM]	Kd (FLT3; competition binding) [µM]	Kd (KIT; competition binding) [µM]	Kd (PDGFRβ; competition binding) [µM]	Kd (CSF1R [1]; competition binding) [µM]	IC50 (CSF1R [2]; HEK293 cells, M-CSF stimulated CSF1R phosphorylation, MSD) [µM]	SMILES	IC50 (M-NFS-60 cells; [3]) [µM]	IC50 (M-NFS-60 cells; M-NFS-60 cell proliferation) [µM]
1 to 5	≤ 0.1	≤ 0.05	0.005 to 0.02	0.05 to 0.2	–	–	–	–	–	CNC(=O)c1cnc2c(c1)ncn2Cc1ccc2nc(N[C@@H]3CCCC[C@H]3O)sc2c1 [Example 89, 3-((2-(((1R,2R)-2-hydroxycyclohexyl)amino)benzo[d]thiazol-6-yl)methyl)-N-methyl-3H-imidazo[4,5-b]pyridine-6-carboxamide]	0.05 to 0.4	–
≤ 0.2	≤ 0.1	≤ 0.05	0.005 to 0.02	≤ 0.05	–	–	–	–	–	O[C@@H]1CCCC[C@H]1Nc1nc2ccc(Cn3cnc4ccc(Br)nc43)cc2s1 [Example 78, (1R,2R)-2-((6-((5-bromo-3H-imidazo[4,5-b]pyridin-3-yl)methyl)benzo[d]thiazol-2-yl)amino)cyclohexanol]	≤ 0.05	–
1 to 5	0.1 to 0.5	0.05 to 0.5	0.005 to 0.02	0.05 to 0.2	–	–	–	–	–	N=C(NO)c1cnc2c(c1)ncn2Cc1ccc2nc(N[C@@H]3CCCC[C@H]3O)sc2c1 [Example 90, N-hydroxy-3-((2-(((1R,2R)-2-hydroxycyclohexyl)amino)benzo[d]thiazol-6-yl)methyl)-3H-imidazo[4,5-b]pyridine-6-carboximidamide]	0.05 to 0.4	–
0.2 to 1	> 2	0.05 to 0.5	0.005 to 0.02	0.2 to 0.5	–	–	–	–	–	O[C@@H]1CCCC[C@H]1Nc1nc2ccc(Cc3c[nH]c4ncccc34)cc2s1 [Example 17, (1R,2R)-2-((6-((1H-pyrrolo[2,3-b]pyridin-3-yl)methyl)benzo[d]thiazol-2-yl)amino)cyclohexanol]	0.4 to 1.5	–
≤ 0.2	0.1 to 0.5	0.05 to 0.5	> 0.05	> 0.5	–	–	–	–	–	NCc1cnc2c(c1)ncn2Cc1ccc2nc(N[C@@H]3CCCC[C@H]3O)sc2c1 [Example 91, (1R,2R)-2-((6-((6-(aminomethyl)-3H-imidazo[4,5-b]pyridin-3-yl)methyl)benzo[d]thiazol-2-yl)amino)cyclohexanol acetate]	0.05 to 0.4	–
